# Test results published in patent US7981893B2, “Heteroaryl compounds, compositions thereof, and methods of treatment therewith” (Signal Pharmaceuticals, LLC, priority 2006, dated 2011).
# What was measured:
# PKCθ = biological target: T1, PKCθ (Homo sapiens, UniProt Q04759); experiment: PKCθ IMAP Assay; assay type: biochemical; conditions: IMAP fluorescence polarization screening assay, 35 μM ATP
# T1 construct: purchased Invitrogen
# Procedure: The following is an example of an assay that can be used to determine the PKCθ inhibitory activity of a test compound. Reagents are prepared as follows:
# Assay Buffer: 50 mM HEPES (pH 7.6), 10 mM MgCl, 0.1 mM EDTA, 5 mM MBP, 0.01% Triton, 1 mM DTT, 0.05 mg/ml phosphatidyl serine, 0.05 mg/ml diacylglycerol.
# The final concentration of PKCθ (Invitrogen) is 0.5 nM. The final concentration of substrate (FAM-AKRRRLSSLRA) (Molecular Devices) is 100 nM. The final concentration of ATP in the reaction is 35 μM. The final concentration of DMSO in the reaction is 2.5%.
# Enzyme is kept in 5 μl aliquots and stored at −80° C. prior to use. Test compound is allowed to pre-incubate with enzyme for 45 minutes before the reactions is initiated.
# The reaction mixture consists of: 5 μl of test compound in 10% DMSO, 5 μl of 400 nM substrate (FAM-AKRRRLSSLRA), 5 μl of […] PKCθ, and 5 μl of 140 μM ATP (ATP is added to the reaction mixture last to initiate the reaction) per well.
# The reaction is allowed to proceed for 60 minutes and is terminated by adding 30 μl per well of 90% Progressive A buffer/10% Progressive B buffer and a 1:400 dilution of binding beeds (Molecular Devices).
# The reaction is given a binding incubation time of at least 30 minutes prior to reading the fluorescence polarization signal on an Analyst reader (the following detector settings are used: fluorescein excitation-485 nm, fluorescein emission-530 nm, fluorescein dichroic-505 nm).
# mTOR = biological target: T2, mTOR (Homo sapiens, UniProt P42345); experiment: mTOR HTR-FRET Assay; assay type: biochemical; conditions: HTR-FRET screening assay, GST-p70S6 kinase fragment substrate
# T2 construct: Dilute TOR fraction 1:14 in “Simple TOR Buffer”
# Procedure: The following is an example of an assay that can be used to determine the mTOR inhibitory activity of a test compound. Reagents are prepared as follows:
# “Simple TOR buffer” (used to dilute high glycerol TOR fraction): 10 mM Tris pH 7.4, 100 mM NaCl, 0.1% Tween-20, 1 mM DTT (from 1M stock frozen at −20° C. just prior to use). For convenience a large quantity of “Simple TOR buffer” w/o DTT can be stored at 4° C. It can be brought to room temperature and DTT added just prior to dilution of TOR fraction.
# 5×KB/5×Mn/5×ATP solution (used to dilute substrate GST-p70S6kin 81 a.a. just prior to use) (40 ml screen quantity shown):
# Enzyme solution: Dilute TOR fraction 1:14 in “Simple TOR Buffer”. For current lot that is 640 μg/ml TOR fraction diluted 14× to yield 45.7 μg/ml TOR in buffer (i.e. 7.85 ml TOR pooled fraction+102.1 ml Simple TOR buffer=110 ml 14× diluted TOR fraction). Each Enzyme Lot must be QC'd prior to assay.
# Substrate solution: This may be prepared just prior to assay if preferred. Dilute 5.3 mg/ml GST-p70S6kinase fragment stock to 3.5 μg/ml (97 nM) working stock in 5×KB/5×Mn/5×ATP solution (i.e. 26.41 μL (5.3 mg/ml) GST-p70S6+40 ml 5×KB/5×Mn/5×ATP=40 ml 3.5 μg/ml (97 nM)).
# Assay Buffer (for dilution of Antibodies used in Antibody Detection Reagent):
# Antibody Detection Reagent (this reagent should be made just prior to addition to Assay Plates):
# Using PlateTrak program (Screen) or Matrix Pipettor (SAR), 19.5 μL of diluted TOR fraction is added to assay plate in all test, reference or positive control wells. 19.5 μL of “Simple TOR buffer” is added to all negative control wells. If treating multiple plates with the same compounds, can increase volume of enzyme to multiples of 19.5 μL in a tall 384 well polypropylene plate.
# Using EP3, 0.5 μl of test, reference or control DMSO is added to each well with mixing. Plates are incubated for 30 minutes at room temperature.
# Using PlateTrak program (Screen) or Matrix Pipettor (SAR) 5 μL of 5×KB/5×Mn/5×ATP/5× substrate solution is added to each well of the assay plate to start the reaction. The solutions are mixed well and incubated for 2 hours at room temperature.
# Using PlateTrak program (Screen) or Matrix Pipettor (SAR) 5 μL of 60 mM EDTA is added to stop the reaction. The solutions are mixed well and allowed to sit for 15-20 minutes before the next step.
# Using PlateTrak program (Screen) or Matrix Pipettor (SAR) 10 μl of Antibody Detection Reagent is added. The solutions are mixes well and incubated for 5 hours to O/N to allow antibodies to form complexes with phosphorylated substrate.
# Plates are read on AnalystHT using protocol Multi-Method protocol.
# T1 sequence (Q04759 whole entry): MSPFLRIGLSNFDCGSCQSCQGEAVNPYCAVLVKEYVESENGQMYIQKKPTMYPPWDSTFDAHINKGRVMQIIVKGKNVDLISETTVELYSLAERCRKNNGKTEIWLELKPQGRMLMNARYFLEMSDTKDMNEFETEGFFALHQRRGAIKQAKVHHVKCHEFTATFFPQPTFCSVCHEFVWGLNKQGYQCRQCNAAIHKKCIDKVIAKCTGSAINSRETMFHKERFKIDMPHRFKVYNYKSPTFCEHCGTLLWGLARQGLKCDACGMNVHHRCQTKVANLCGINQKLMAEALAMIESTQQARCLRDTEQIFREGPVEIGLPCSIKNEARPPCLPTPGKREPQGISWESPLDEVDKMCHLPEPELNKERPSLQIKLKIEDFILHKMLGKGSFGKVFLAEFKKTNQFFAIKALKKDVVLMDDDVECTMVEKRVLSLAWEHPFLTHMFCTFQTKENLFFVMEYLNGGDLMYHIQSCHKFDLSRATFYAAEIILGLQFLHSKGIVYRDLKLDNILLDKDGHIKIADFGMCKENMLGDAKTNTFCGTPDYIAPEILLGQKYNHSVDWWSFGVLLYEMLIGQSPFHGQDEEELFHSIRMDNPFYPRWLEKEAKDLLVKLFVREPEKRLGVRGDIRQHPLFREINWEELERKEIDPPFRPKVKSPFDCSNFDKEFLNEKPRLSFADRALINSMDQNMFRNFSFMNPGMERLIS
Structure (SMILES),IC50 (PKCθ),IC50 (mTOR),melting point
"COc1cc(-c2cnc3[nH]c(=O)n(CC4CCOCC4)c3n2)cc(OC)c1OC [Compound 2, 1-((tetrahydro-2H-pyran-4-yl)methyl)-6-(3,4,5-trimethoxyphenyl)-1H-imidazo[4,5-b]pyrazin-2(3H)-one]",> 30 µM,0.1 to 5 µM,
"COc1cccc(Cn2c(=O)[nH]c3ncc(-c4ccc(S(C)(=O)=O)cc4)nc32)c1 [Compound 4, 1-(3-methoxybenzyl)-6-(4-(methylsulfonyl)phenyl)-1H-imidazo[4,5-b]pyrazin-2(3H)-one]",> 30 µM,0.1 to 5 µM,
"C[C@@H](c1ccccc1)n1c(=O)[nH]c2ncc(-c3cccc4ncccc34)nc21 [Compound 5, (S)-1-(1-phenylethyl)-6-(quinolin-5-yl)-1H-imidazo[4,5-b]pyrazin-2(3H)-one]",> 30 µM,5.1 to 10 µM,
"O=c1[nH]c2ncc(-c3ccc(O)cc3)nc2n1CC1CCOCC1 [Compound 6, 6-(4-hydroxyphenyl)-1-((tetrahydro-2H-pyran-4-yl)methyl)-1H-imidazo[4,5-b]pyrazin-2(3H)-one]",,0.1 to 5 µM,
"CC(c1cccnc1)n1c(=O)[nH]c2ncc(-c3cccc4ncccc34)nc21 (stereo not drawn) [Compound 76, 1-(1-(pyridin-3-yl)ethyl)-6-(quinolin-5-yl)-1H-imidazo[4,5-b]pyrazin-2(3H)-one]",5.1 to 10 µM,,
"O=c1[nH]c2ncc(-c3cccc4ncccc34)nc2n1C1CCC(CO)CC1 (stereo not drawn) [Compound 77, 1-((1s,4s)-4-(hydroxymethyl)cyclohexyl)-6-(quinolin-5-yl)-1H-imidazo[4,5-b]pyrazin-2(3H)-one]",20.1 to 30 µM,,
"CC(c1ccccc1)n1c(=O)[nH]c2ncc(-c3ccc(NS(C)(=O)=O)cc3)nc21 (stereo not drawn) [Compound 78, N-(4-(2-oxo-3-(1-phenylethyl)-2,3-dihydro-1H-imidazo[4,5-b]pyrazin-5-yl)phenyl)methanesulfonamide]",> 30 µM,,
"CC(c1ccccc1)n1c(=O)[nH]c2ncc(-c3cccc(N)c3)nc21 (stereo not drawn) [Compound 80, 6-(3-aminophenyl)-1-(1-phenylethyl)-1H-imidazo[4,5-b]pyrazin-2(3H)-one]",,5.1 to 10 µM,

# The remaining lines, values ahead:
IC50 (PKCθ),IC50 (mTOR),melting point,Structure (SMILES)
,> 30 µM,,"CC(c1ccccc1)n1c(=O)[nH]c2ncc(-c3cccc(N(C)C)c3)nc21 (stereo not drawn) [Compound 81, 6-(3-(dimethylamino)phenyl)-1-(1-phenylethyl)-1H-imidazo[4,5-b]pyrazin-2(3H)-one]"
> 30 µM,,,"CC(c1ccccc1)n1c(=O)[nH]c2ncc(-c3ccc(C(F)(F)F)cc3)nc21 (stereo not drawn) [Compound 83, 1-(1-phenylethyl)-6-(4-(trifluoromethyl)phenyl)-1H-imidazo[4,5-b]pyrazin-2(3H)-one]"
,> 30 µM,,"CC(c1ccccc1)n1c(=O)oc2ncc(-c3cccc4ncccc34)nc21 (stereo not drawn) [Compound 86, 3-(1-phenylethyl)-5-(quinolin-5-yl)oxazolo[5,4-b]pyrazin-2(3H)-one]"
,0.1 to 5 µM,296 to 297 °C,"O=c1[nH]c2ncc(-c3ccc(O)cc3)nc2n1CC1CCCC1 [Compound 87, 1-(cyclopentylmethyl)-6-(4-hydroxyphenyl)-1H-imidazo[4,5-b]pyrazin-2(3H)-one]"
,0.1 to 5 µM,323 to 324 °C,"CC(C)n1c(=O)[nH]c2ncc(-c3ccc(O)cc3)nc21 [Compound 88, 6-(4-hydroxyphenyl)-1-isopropyl-1H-imidazo[4,5-b]pyrazin-2(3H)-one]"
,0.1 to 5 µM,290 to 291 °C,"CC(C)Cn1c(=O)[nH]c2ncc(-c3ccc(O)cc3)nc21 [Compound 89, 6-(4-hydroxyphenyl)-1-isobutyl-1H-imidazo[4,5-b]pyrazin-2(3H)-one]"
,0.1 to 5 µM,271 to 272 °C,"O=c1[nH]c2ncc(-c3ccc(O)cc3)nc2n1CC1CCCOC1 (stereo not drawn) [Compound 90, 6-(4-hydroxyphenyl)-1-((tetrahydro-2H-pyran-3-yl)methyl)-1H-imidazo[4,5-b]pyrazin-2(3H)-one]"
,0.1 to 5 µM,302 to 303 °C,"O=c1[nH]c2ncc(-c3ccc(O)cc3)nc2n1CC1CCCCC1 [Compound 91, 1-(cyclohexylmethyl)-6-(4-hydroxyphenyl)-1H-imidazo[4,5-b]pyrazin-2(3H)-one]"
